Laboratory results from patent US11161830B2, “4-pyridone compound or salt thereof, and pharmaceutical composition and formulation including same” (priority 2017, dated 2021).
Like-named read-outs stand apart in the source and are kept apart here.

System: HBV (genotype AeUS)
Experiment: Test Example 2-1: anti-HBV assay in PXB-cells (fresh human hepatocytes)
Assay type: cell-based, hepatitis B virus
Details: PXB-cells infected with HBV genotype AeUS, culture supernatant on day 32 post infection
Method: Using fresh human hepatocytes (PXB-cells, manufactured by PhenixBio Co., Ltd.) collected from a PXB mouse (a chimeric mouse with human hepatocytes), the anti-HBV activity of the representative compounds was evaluated in the following procedure.
The following was used as a medium:
DMEM (manufactured by Sigma)+0.25 μg/mL insulin (manufactured by Wako)+1% penicillin/streptomycin. (manufactured by Sigma)+20 mmol/L HEPES (manufactured by Sigma)+15 μg/mL L-proline (manufactured by Sigma)+50 nmol/L dexamethasone (manufactured by Sigma)+5 ng/mL EGF (manufactured by Peprotech)+0.1 mmol/L ascorbic acid 2-phosphate (manufactured by Wako)+10% FBS+2% DMSO
Each of the test compounds) was further added to the medium to prepare a test solution containing each of the test compounds at various concentrations.
(1) PXB-cells seeded at a seeding density of 2.1×10^5 cells/cm^2 in a 96-well microliter plate were incubated in a 5% CO2 incubator at 37° C. until a day on which the cells were infected.
(2) HBV (genotype AeUS) derived from a PXB mouse serum was suspended in the medium containing 4% PEG-8000, and added to the plate of (1) at about 10 copies/cell such that the PXB cells were infected (100 μL/well), and the plate was incubated in a 5% CO2 incubator at 37° C. for 1 day.
(3) The culture supernatant on day 1 post infection was removed and the cells were washed three times with DMEM containing 10% FBS and 1% penicillin/streptomycin. Then, the medium was added to the plate (100 μL/well) and the plate was incubated in a 5% CO2 incubator at 37° C. for 1 day.
(4) The culture supernatant on day 2 post infection was removed and the cells were washed three times with DMEM containing 10% FBS and 1% penicillin/streptomycin. Then, the medium was added to the plate (100 μL/well) and the plate was incubated in a 5% CO2 incubator at 37° C. for 5 days.
(5) The culture supernatant on day 7 post infection was removed, the medium was added to the plate (100 μL/well), and the plate was incubated in a 5% CO2 incubator at 37° C. for 5 days.
(6) The culture supernatant on day 12 post infection was removed, the medium was added to the plate (100 μL/well), and the plate was incubated in a 5% CO2 incubator at 37° C. for 5 days.
(§1) (7) The culture supernatant on day 17 post infection was removed, the test solution was added to the plate (100 μL/well), and the plate was incubated in a 5% CO2 incubator at 37° C. for 5 days. As a control without the compound added, the medium was added to the plate (100 μL/well) and the plate was incubated in a 5% CO2 incubator at 37° C. for 5 days.
as §1, with “(8)” for “(7)”, “22” for “17”
as §1, with “(9)” for “(7)”, “27” for “17”
(10) The culture supernatant on day 32 post infection was collected.
(11) The collected culture supernatant on day 32 post infection was purified with a QIAamp (registered trademark) DNA Blood Mini Kit (manufactured by QIAGEN). The amount of HBV-DNA in the obtained solution was absolutely quantified by a real-time PCR method. In addition, the amount of HBsAg in the culture supernatant was absolutely quantified by chemiluminescent enzyme immunoassay using Lumipulse (registered trademark) HBsAg-HQ (manufactured by Fujirebio Inc.). A relative viral load (%) with respect to a control without the compound added was each calculated. […]

[1] = Hepatitis B virus, Hepatocyte, read-out: IC50 HBV-DNA
[2] = Hepatitis B virus, Hepatocyte, read-out: IC50 HBsAg

Compound | IC50 [1] [nM] | IC50 [2] [nM] | IC50 (read-out: IC50 HBV-DNA) [nM] | IC50 (read-out: IC50 HBsAg) [nM]
COC[C@H]1CCCN1c1nc2ccc(-n3cc(C(=O)O)c(=O)cc3-c3ccc(N4CCCC4)c(Br)c3)cc2s1 [Example 5-6, (R)-6-(3-bromo-4-(pyrrolidin-1-yl)phenyl)-1-(2-(2-(methoxymethyl)pyrrolidin-1-yl)benzo[d]thiazol-6-yl)-4-oxo-1,4-dihydropyridine-3-carboxylic acid] | 41 | 62 | – | –
COCCN(CCOC)c1nc2ccc(-n3cc(C(=O)O)c(=O)cc3-c3ccc(N4CCCC4)c(Br)c3)cc2s1 [Example 5-3, 1-(2-(bis(2-methoxyethyl)amino)benzo[d]thiazol-6-yl)-6-(3-bromo-4-(pyrrolidin-1-yl)phenyl)-4-oxo-1,4-dihydropyridine-3-carboxylic acid] | 25 | 52 | – | –
COC[C@H]1CCCN1c1nc2ccc(-n3cc(C(=O)O)c(=O)cc3-c3ccc(N4CCCC4)c(Cl)c3)cc2s1 [Example 6-3, (R)-6-(3-chloro-4-(pyrrolidin-1-yl)phenyl)-1-(2-(2-(methoxymethyl)pyrrolidin-1-yl)benzo[d]thiazol-6-yl)-4-oxo-1,4-dihydropyridine-3-carboxylic acid] | 30 | 57 | – | –
COCCN1CCN(c2nc3ccc(-n4cc(C(=O)O)c(=O)cc4-c4ccc(N5CC[C@@H](OC)C5)c(Cl)c4)cc3s2)CC1 [Example 12-2, (R)-6-(3-chloro-4-(3-methoxypyrrolidin-1-yl)phenyl)-1-(2-(4-(2-methoxyethyl)piperazin-1-yl)benzo[d]thiazol-6-yl)-4-oxo-1,4-dihydropyridine-3-carboxylic acid] | 28 | 42 | – | –
COCCN(CCOC)c1nc2ccc(-n3cc(C(=O)O)c(=O)cc3-c3ccc(N4CCCC4)c(Cl)c3)cc2s1 [Example 6-2] | – | – | 25 | 81
COCCN(CCOC)c1nc2ccc(-n3cc(C(=O)O)c(=O)cc3-c3ccc(N4CC[C@@H](OC)C4)cc3)cc2s1 [Example 10-3] | – | – | 47 | 56
